Results reported in ChEMBL document CHEMBL1153937, “Synthesis and antiviral evaluation of thieno[3,4-d]pyrimidine C-nucleoside analogues of 2',3'-dideoxy- and 2',3'-dideoxy-2',3'-didehydro-adenosine and -inosine” (Bioorg Med Chem, 2009).
pEC50, pIC50: −log10 of the molar value. Activity calls are given as the source filed them. The rule behind the calls is not given here.

How the values were obtained:
Dengue virus = experiment: Antiviral activity against Dengue virus at 75 uM; type: functional, organism-based
[1] = tested on: Human immunodeficiency virus 1; experiment: Antiviral activity against HIV1 BH10 in human MT4 cells assessed as inhibition of virus-induced cytopathogenicity after 4 days by MTS method; type: functional, organism-based, Human immunodeficiency virus type 1 BH10; conditions: Human immunodeficiency virus 1, MT4, 96 h
[2] = Cytotoxicity against human MT4 cells by MTS method; type: cell-based
West Nile virus = experiment: Antiviral activity against West Nile virus at 75 uM; type: functional, organism-based
Yellow fever virus = experiment: Antiviral activity against Yellow fever virus at 75 uM; type: functional, organism-based
L1210 = experiment: Growth inhibition of mouse L1210 cells; type: functional, cell-based
HL-60 = experiment: Growth inhibition of human HL60 cells; type: functional, cell-based
CCRF S-180 = experiment: Growth inhibition of mouse S180 cells; type: functional, cell-based

SMILES | Activity (Dengue virus) | pEC50 [1] | CC50 [2] | Activity (West Nile virus) | Activity (Yellow fever virus) | pIC50 (L1210) | pIC50 (HL-60) | pIC50 (CCRF S-180)
O=c1[nH]cnc2c([C@@H]3O[C@H](CO)[C@@H](O)[C@H]3O)scc12 | inactive | < 4.00 | > 100 µM | inactive | inactive | – | – | –
OC[C@H]1O[C@@H](c2scc3c(=S)[nH]cnc23)[C@H](O)[C@@H]1O | inactive | < 5.54 | 2.9 µM | inactive | inactive | 4.75 | 5.09 | 4.54
CSc1ncnc2c([C@H]3C=C[C@@H](CO)O3)scc12 | inactive | < 4.15 | 70 µM | inactive | inactive | – | – | –
Cc1cn([C@H]2C[C@H](N=[N+]=[N-])[C@@H](CO)O2)c(=O)[nH]c1=O [ZIDOVUDINE] | – | 8.05 | 61 µM | – | – | – | – | –
Nc1ncnc2c([C@H]3CC[C@@H](CO)O3)scc12 | inactive | < 4.12 | > 75 µM | inactive | inactive | – | – | –
OC[C@@H]1CC[C@H](c2scc3c(O)ncnc23)O1 | inactive | < 4.00 | > 100 µM | inactive | inactive | – | – | –
Nc1ncnc2c([C@H]3C=C[C@@H](CO)O3)scc12 | inactive | < 5.14 | 7.3 µM | inactive | inactive | – | – | –
OC[C@@H]1C=C[C@H](c2scc3c(O)ncnc23)O1 | inactive | < 4.00 | > 100 µM | inactive | inactive | – | – | –
